Data taken from patent publication US20160015725A1, “METHODS OF CONTROLLING TUMOR BIOENERGETICS NETWORKS” (THE WISTAR INSTITUTE OF ANATOMY AND BIOLOGY, priority 2012, published 2016).

Assays:
LN229 cells [1] = assay: Extracellular lactate; assay type: cell-based, human; conditions: tumor cells
Protocol: (§1) Glucose concentrations in cell culture media were determined using a Glucose kit (Sigma-Aldrich). Briefly, 2×10^6 cells were seeded in 10 cm2 tissue culture dishes for 48 h, mixed with DMEM in the presence of Gamitrinib or 17-AAG (0-20 μM) for additional 4 h, and 200 μl aliquots of culture medium were incubated with 1 ml assay mixture, containing 1.5 mM NAD, 1 mM ATP, 1.0 U/ml Hexokinase, and 1.0 U/ml G6PDH. The glucose concentration under the various conditions was determined by measuring the amount of reduced NAD to NADH by G6PDH, and quantified spectrophotometrically at 340 nm wavelength. Extracellular lactate was measured by a colorometric assay kit (Abcam). Culture media from LN229 cells was replaced with DMEM containing vehicle (DMSO) or Gamitrinib (5 μM) for 5 h. Changes in lactate concentrations were measured by analysis of lactate-dependent conversion of NADP to NADPH in the presence of excess lactate dehydrogenase (LDH), and quantified by absorbance at 450 nm. All assays were performed at 25° C. under conditions of linear lactate-limited NADPH formation.

hexokinase = assay: Hexokinase activity in mitochondrial fractions of treated cells; assay type: cell-based, human; conditions: LN229 mitochondrial fractions, 5 h
Protocol: HK activity in LN229 cells was measured as the total glucosephosphorylating activity using a standard G6PDH-coupled assay kit (BioVision). Mitochondria isolated from Gamitrinib- or 17-AAG-treated LN229 cells, or cultures transfected with various siRNAs were homogenized in cold PBS, followed by centrifugation at 1000 g for 10 min at 4° C. HK activity was determined by analysis of G6P-dependent conversion of NADP to NADPH in the presence of excess […] in the presence of 2 mM glucose, and quantification of absorbance at 450 nm. All assays were performed at 25° C. under conditions of linear HK-limited NADPH formation.

tumor cells [2] = assay: Mitochondrial permeability transition; assay type: cell-based, human; conditions: non-cytotoxic concentrations
Protocol: (a) FIG. 18a is a bar graph showing percent viability of aliquots of the human tumor cell lines PC3, LNCaP, LN229, A549, or MCF-7 incubated with the indicated increasing concentrations of Gamitrinib for 5 hr and analyzed for changes in cell viability by direct cell counting. Mean±SD (n=2). (b) FIG. 18b are two parameter histogram dot plots of human glioblastoma LN229 cells left untreated (None) or incubated with 5 μM 17-AAG or Gamitrinib (Gam) for 5 hr and analyzed for changes in mitochondrial membrane potential by JC-1 staining and multiparametric flow cytometry. The mitochondrial uncoupler carbonyl cyanide 3-chlorophenylhydrazone (CCCP) was used as a control. The percentage of cells in each quadrant is indicated. FL1, green fluorescence; FL2, red fluorescence.

[3] = tested on: mutant BRAF melanoma cells; assay: 3D organotypic spheroids, mutant BRAF; assay type: cell-based, human; conditions: collagen-embedded, 72 h
Protocol: For analysis of tumor cell survival in 3D organotypic cultures, melanoma spheroids were prepared as previously described. Briefly, 50 μl aliquots of the various melanoma cell types (5×10^4 cells/ml) were seeded onto 96-well plates coated with 1.5% agar (Difco, Sparks, Md.) in PBS. Spheroids were allowed to form for 72 h and then embedded in 100 μl of bovine collagen type I (Organogenesis, Canton, Mass.). Spheroids were overlaid with 100 μl of Tu2% growth medium and treated with inhibitors for 72 hours. Quantification of live vs. dead cells under the various conditions tested was performed by staining the melanoma spheroids after 72 h of treatment with calcein-AM (live) and Topro-3 (dead) (Invitrogen) for 1 h (data not shown).

CypD = assay: Mitochondrial protein folding (detergent solubility); assay type: cell-based, human; conditions: increasing CHAPS concentrations
Protocol: Mitochondrial protein folding assays were performed as described (Moisoi et al., 2009). Briefly, mitochondrial fractions were isolated from vehicle- or Gamitrinib-treated LN229 cells (5 μM for 12 h) and suspended in equal volume of mitochondrial fractionation buffer containing increasing concentrations of CHAPS (0, 0.05, 0.1, 0.2, 0.5, 1 or 2%). Samples were incubated for 20 min on ice and detergent-insoluble protein aggregates were isolated by centrifugation (20,000 g) for 20 min. Pellets were processed for further analysis.

NIH3T3 fibroblasts = assay: ATP production and AMPK/mTORC1 phosphorylation in non-transformed cells; assay type: cell-based
Protocol: For Western blotting, protein lysates were prepared from the different cell types in RIPA Buffer (150 mM NaCl, 1.0% Triton X-100, 0.5% sodium deoxycholate, 0.1% SDS, 50 mM Tris, pH 8.0) containing EDTA-free Protease Inhibitor Cocktail (Roche) and Phosphatase Inhibitor Cocktail 2 and 3 (Sigma Aldrich). Equal amounts of protein lysates were separated by SDS gel electrophoresis, transferred to PVDF membranes and incubated with primary antibodies of various specificities. Protein bands were detected by chemiluminescence.
Intracellular ATP concentrations were measured by the luciferin—luciferase method using an ATP measuring kit (Biochain). The ATP concentration in each extract was measured with a microplate luminometer (Beckman Coulter) against standard ATP solutions used as reference. In some experiments, PC3 or LN229 cells were preincubated with sodium pyruvate for 7 h in the presence of vehicle or Gamitrinib before determination of ATP production.

tumor cells [4] = assay: Autophagy (LC3 conversion, LC3-CFP puncta); assay type: cell-based, human
Protocol: LN229 cells were transfected with various siRNAs, and mixed after 24 h with plasmid encoding cyan fluorescent protein (CFP) fused to human […] (LC3) cDNA in the presence of Lipofectamine 2000 Transfection Reagent (Invitrogen). After 48 h, transfected cells were fixed in 4% paraformaldehyde for 15 min at 37° C., washed, and examined by fluorescence microscopy (Nikon, E600). The numbers of CFP-LC3 punctate dots per cell was determined from three independent experiments. A minimum of 50 CFP-LC3-positive cells assessed from at least ten random fields per sample were counted in triplicate per each condition.
Samples were imaged using a Leica TCS SP2 confocal microscope. For determination of autophagy, cells under the various conditions tested were harvested after 12 h, and analyzed with an antibody to […] (LC3) by Western blotting.

LN229 cells [5] = assay: Glucose utilization; assay type: cell-based, human; conditions: tumor cells
Protocol: as §1

[6] = tested on: BRAF V600E melanoma cells; assay: Melanoma cell viability by MTT, BRAF V600E; assay type: cell-based, human
Protocol: Various cell types were seeded in triplicate onto 96-well plates at 4×10^3 cells/well, treated with vehicle, Gamitrinib or 17-AAG (0-20 μM) for 12 h, and analyzed for changes in metabolic activity by an MTT assay. For determination of apoptosis, LN229 cells ([…]) were labeled for annexin V and propidium iodide (PI) (BD Biosciences), and analyzed by multiparametric flow cytometry (BD).

CO[C@H]1/C=C\C=C(/C)C(=O)NC2=CC(=O)C(NCCCCCC[P+](c3ccccc3)(c3ccccc3)c3ccccc3)=C(C[C@@H](C)C[C@H](OC)[C@H](O)[C@@H](C)/C=C(\C)[C@@H]1OC(N)=O)C2=O [Gamitrinib]
extracellular lactate levels (LN229 cells [1]): reduced | hexokinase activity (hexokinase): a decrease in hexokinase activity | mitochondrial permeability transition (tumor cells [2]): do not trigger mitochondrial permeability transition | cell killing in 3D spheroids [3]: efficiently killed | concentrations that killed cells in 3D spheroids [3]: 1 to 3 µM | COX-IV solubility (CypD): indistinguishable in control or Gamitrinib-treated cells | CypD solubility (CypD; vs untreated cultures): caused CypD to remain insoluble over a broad range of detergent concentrations | ATP production, AMPK or mTORC1 phosphorylation (NIH3T3 fibroblasts): did not affect ATP production, or AMPK or mTORC1 phosphorylation | autophagy (LC3-II conversion) (tumor cells [4]): strongly activated autophagy | glucose utilization (LN229 cells [5]): reduced glucose utilization | IC50 [6]: 1950 ± 210 nM
